From US20220280661A1, “GLUCOCORTICOID RECEPTOR RADIOLIGANDS AND METHODS FOR THEIR PREPARATION AND USE” (The Regents of the University of California, priority 2019, published 2022)

Target: T1, GR (Mus musculus, UniProt P06537)
T1 construct: from tissue; host or cells: tissues of C57BL6/J mice (intact or adrenalectomized), in vivo
T1 sequence (P06537 1-792): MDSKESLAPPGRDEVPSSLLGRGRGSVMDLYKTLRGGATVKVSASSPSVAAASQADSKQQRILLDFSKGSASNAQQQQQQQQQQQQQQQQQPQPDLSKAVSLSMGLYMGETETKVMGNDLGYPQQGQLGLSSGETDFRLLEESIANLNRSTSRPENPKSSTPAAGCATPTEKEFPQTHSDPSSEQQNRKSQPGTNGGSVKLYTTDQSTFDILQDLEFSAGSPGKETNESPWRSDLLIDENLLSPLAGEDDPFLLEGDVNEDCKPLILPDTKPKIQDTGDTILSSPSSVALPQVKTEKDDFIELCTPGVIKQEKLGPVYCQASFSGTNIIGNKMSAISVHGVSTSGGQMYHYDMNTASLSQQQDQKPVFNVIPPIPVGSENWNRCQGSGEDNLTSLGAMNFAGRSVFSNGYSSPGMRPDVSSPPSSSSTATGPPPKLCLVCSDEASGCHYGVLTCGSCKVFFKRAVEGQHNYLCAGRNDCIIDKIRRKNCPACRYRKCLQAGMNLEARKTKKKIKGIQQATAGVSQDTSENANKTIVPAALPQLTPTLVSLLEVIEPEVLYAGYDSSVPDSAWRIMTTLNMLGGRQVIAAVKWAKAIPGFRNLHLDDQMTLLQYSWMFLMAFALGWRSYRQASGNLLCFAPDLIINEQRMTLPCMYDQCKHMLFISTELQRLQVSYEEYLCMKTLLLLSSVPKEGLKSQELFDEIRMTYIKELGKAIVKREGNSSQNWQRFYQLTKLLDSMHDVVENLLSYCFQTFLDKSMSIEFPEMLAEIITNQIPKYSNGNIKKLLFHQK
Test: Radiotracer biodistribution in intact or adrenalectomized mice
Assay type: in vivo
Details: 20 min post injection
Description: All animal experiments were conducted under the approval from Institutional Animal Care and Use Committee (IACUC) at UCSF. Male nu nu or C57BL6/J mice (4-6 weeks) purchased from Charles River. All the mice were well-housed in the USCF with free access to food and water. […] The mice were treated once daily for three days. At day 3, the mice received the radiotracer after the final gavage. Adrenalectomized mice were purchased from Charles River, and provided drinking water supplemented with NaCl (aq) per instructions.
For a broader survey of radiotracer biodistribution post mortem, mice were euthanized after radiotracer injection with CO2(g) asphyxiation and dissected at dedicated time points post injection. The blood and tissues were removed, washed, dried and weighed. The activity of each tissue was measured with a gamma counter. All data was decay corrected. PRISM software was used to express a percentage (% ID/g) of the injected dose per gram of tissue. […] Table 2 provides a tabular representation of the biodistribution data collected 30, 60, 90 minutes after injection of [18F]-YJH08 in C57B16/J mice. The data are represented as mean standard deviation of the % ID/g.
To understand if corticosteroid depletion elevated radiotracer uptake in tissues, the biodistribution of [18F]-YJH08 was compared in intact and adrenalectomized (adx) mice. The radiotracer uptake was uniformly higher in the tissues of adx mice compared to intact mice (FIG. 4C and Table 4). Overall, the extent of GR specific binding in tissues observed with [18F]-YJH08 is remarkable considering the previously reported biodistribution data for radiotracers targeting GR, including non-steroidal agonists. See, Wuest, et al. Bioorganic & medicinal chemistry letters 2007, 17 (14), 4035-9.
The P value indicates the result of an unpaired, two-tailed Student's t test between the two arms (n=4/group).
Animal Studies. All animal experiments were performed under the approval of the Institutional Animal Care and Use Committee (IACUC) at UCSF. C57BL6/J mice (4-6 weeks) were purchased from Charles River. All the mice were housed in a dedicated vivarium with free access to food and water. […] Adrenalectomized mice were purchased from Charles River and provided drinking water supplemented with NaCl (aq) per instructions until the time of the tracer biodistribution study.
Biodistribution Studies. Mice were euthanized after radiotracer (7.4-18.5 MBq in 100-150 μL) injection with CO2 (g) asphyxiation and dissected at dedicated time points post injection. The blood and tissues were collected, washed, dried, and weighed. The activity of each tissue was measured with a gamma counter. All data was decay corrected. PRISM software was used to express a percentage (% ID/g) of the injected dose per gram of tissue.
The data were collected in intact male C57B16/J mice at 20 min post injection.
Significant reductions in (±)-^11C-YJH08 tissue uptake were observed by treating mice with Dex-CD at 10 mg/kg via intraperitoneal injection 1 hour before the radiotracer injection (FIG. 7A). […] Specific binding in vivo was further studied by investigating relative tissue uptake in intact versus adrenalectomized mice (adrenalectomy depletes serum corticosteroids and elevates GR expression in tissues). […] Table 8 summarizes the biodistribution data collected 20 minutes after injection of (±)-^11C-YJH08 in intact or adrenalectomized (ADREX) mice. The P value indicates the result of an unpaired, two-tailed Student's t test between the two arms (n=4/group).

[1] = intact C57B16/J mice, listed as (±)-^18F-YJH08

In the case of `CC1=CC(C)(C)Nc2ccc3c(c21)C(Cc1ccc(F)cc1)Oc1cccc(O[11CH3])c1-3` (racemic) [(±)-^11C-YJH08], the “radiotracer uptake, Blood” value (adrenalectomized mice) is reported as 2.79 ± 0.54 % ID/g, the “radiotracer uptake, Bone” value (adrenalectomized mice) is reported as 2.03 ± 0.4 % ID/g and the “radiotracer uptake, Brain” value (adrenalectomized mice) is reported as 2.28 ± 0.46 % ID/g. For the same compound, the “radiotracer uptake, Heart” value (adrenalectomized mice) was 5.63 ± 0.94 % ID/g, the “radiotracer uptake, Kidney” value (adrenalectomized mice) was 6.88 ± 1.52 % ID/g and the “radiotracer uptake, Liver” value (adrenalectomized mice) was 15.21 ± 3.39 % ID/g. For the same compound, the “radiotracer uptake, Muscle” value (adrenalectomized mice) was 2.32 ± 0.5 % ID/g, the “radiotracer uptake, Spleen” value (adrenalectomized mice) was 2.88 ± 0.68 % ID/g and the “radiotracer uptake, Supraspinal BAT” value (adrenalectomized mice) was 12.01 ± 3.54 % ID/g. For the same compound, the “radiotracer uptake, Adrenal Gland” value (intact C57B16/J mice) was 13.88 ± 7.15 % ID/g, the “radiotracer uptake, Blood” value (intact C57B16/J mice) was 2.25 ± 0.21 % ID/g and the “radiotracer uptake, Bone” value (intact C57B16/J mice) was 1.19 ± 0.13 % ID/g. For the same compound, the “radiotracer uptake, Brain” value (intact C57B16/J mice) was 1.81 ± 0.17 % ID/g, the “radiotracer uptake, Heart” value (intact C57B16/J mice) was 4.47 ± 0.43 % ID/g and the “radiotracer uptake, Kidney” value (intact C57B16/J mice) was 5.82 ± 0.28 % ID/g. The “radiotracer uptake, Liver” value (intact C57B16/J mice) was 12.19 ± 1.22 % ID/g, the “radiotracer uptake, Muscle” value (intact C57B16/J mice) was 1.53 ± 0.13 % ID/g and the “radiotracer uptake, Spleen” value (intact C57B16/J mice) was 2.22 ± 0.33 % ID/g. For the same compound, the “radiotracer uptake, Supraspinal BAT (brown fat depot)” value (intact C57B16/J mice) was 9.8 ± 2.83 % ID/g.

In the case of `COc1cccc2c1-c1ccc3c(c1C(Cc1ccc([18F])cc1)O2)C(C)=CC(C)(C)N3` (racemic) [[18F]-YJH08, [^18F]-5-(4-fluorobenzyl)-10-methoxy-2,2,4-trimethyl-2,5-dihydro-1H-chromeno[3,4-f]quinoline], the “radiotracer uptake, Blood” value (adrenalectomized mice) is reported as 2.67 ± 0.1 % ID/g, the “radiotracer uptake, Bone” value (adrenalectomized mice) is reported as 1.45 ± 0.2 % ID/g and the “radiotracer uptake, Brain” value (adrenalectomized mice) is reported as 2.42 ± 0.1 % ID/g. For the same compound, the “radiotracer uptake, Heart” value (adrenalectomized mice) was 4.75 ± 1.0 % ID/g, the “radiotracer uptake, Kidney” value (adrenalectomized mice) was 6.91 ± 0.3 % ID/g and the “radiotracer uptake, Large intestine” value (adrenalectomized mice) was 1.34 ± 0.7 % ID/g. The “radiotracer uptake, Liver” value (adrenalectomized mice) was 13.28 ± 1.43 % ID/g, the “radiotracer uptake, Lung” value (adrenalectomized mice) was 4.35 ± 1.1 % ID/g and the “radiotracer uptake, Muscle” value (adrenalectomized mice) was 2.03 ± 0.2 % ID/g. The “radiotracer uptake, Pancreas” value (adrenalectomized mice) was 5.25 ± 0.4 % ID/g, the “radiotracer uptake, Small intestine” value (adrenalectomized mice) was 27.83 ± 2.89 % ID/g and the “radiotracer uptake, Spleen” value (adrenalectomized mice) was 3.25 ± 0.05 % ID/g. For the same compound, the “radiotracer uptake, Stomach” value (adrenalectomized mice) was 3.23 ± 3.57 % ID/g, the “radiotracer uptake, Supraspinal BAT” value (adrenalectomized mice) was 15.56 ± 3.8 % ID/g and the “radiotracer uptake, Adrenal Gland” value (intact C57B16/J mice) was 10.82 ± 5.9 % ID/g. For the same compound, the “radiotracer uptake, Blood” value (intact C57B16/J mice) was 2.01 ± 0.4 % ID/g, the “radiotracer uptake, Bone” value (intact C57B16/J mice) was 1.39 ± 02 % ID/g and the “radiotracer uptake, Brain” value (intact C57B16/J mice) was 1.96 ± 0.09 % ID/g. For the same compound, the “radiotracer uptake, Heart” value (intact C57B16/J mice) was 3.92 ± 0.5 % ID/g, the “radiotracer uptake, Kidney” value (intact C57B16/J mice) was 5.79 ± 1.0 % ID/g and the “radiotracer uptake, Liver” value (intact C57B16/J mice) was 10.68 ± 1.1 % ID/g. For the same compound, the “radiotracer uptake, Lung” value (intact C57B16/J mice) was 3.89 ± 0.7 % ID/g, the “radiotracer uptake, Muscle” value (intact C57B16/J mice) was 1.53 ± 0.1 % ID/g and the “radiotracer uptake, Pancreas” value (intact C57B16/J mice) was 4.40 ± 0.2 % ID/g. For the same compound, the “radiotracer uptake, Small intestine” value (intact C57B16/J mice) was 21.22 ± 4.1 % ID/g, the “radiotracer uptake, Spleen” value (intact C57B16/J mice) was 2.67 ± −0.5 % ID/g and the “radiotracer uptake, Stomach” value (intact C57B16/J mice) was 3.38 ± 2.8 % ID/g. The “radiotracer uptake, Supraspinal BAT (brown fat depot)” value (intact C57B16/J mice) was 9.01 ± 2.0 % ID/g, the “radiotracer uptake, Adrenal Gland” value [1] was 12.19 ± 6.46 % ID/g and the “radiotracer uptake, Blood” value [1] was 2.22 ± 0.14 % ID/g. For the same compound, the “radiotracer uptake, Bone” value [1] was 1.3 ± 0.23 % ID/g, the “radiotracer uptake, Brain” value [1] was 1.93 ± 0.07 % ID/g and the “radiotracer uptake, Heart” value [1] was 4.15 ± 0.31 % ID/g. For the same compound, the “radiotracer uptake, Kidney” value [1] was 5.79 ± 1.07 % ID/g, the “radiotracer uptake, Liver” value [1] was 11.08 ± 0.92 % ID/g and the “radiotracer uptake, Muscle” value [1] was 1.53 ± 0.12 % ID/g. For the same compound, the “radiotracer uptake, Spleen” value [1] was 2.46 ± 0.53 % ID/g and the “radiotracer uptake, Supraspinal BAT (brown fat depot)” value [1] was 9.01 ± 2.07 % ID/g.
